Read-outs that look alike come from different tables or passages of the source.
Legend:
[1] = molecular target: isolated recombinant JAK2 kinase domain (Homo sapiens (Human), UniProt O60674); settings: read-out: JAK2 Ki
[2] = test system: JAK1-dependent STAT6 phosphorylation downstream of IL-13 stimulation in BEAS-2B human bronchial epithelial cells; test: cells; settings: read-out: IL13-pSTAT6 BEASB2B IC50
[3] = test system: JAK1-dependent STAT6 phosphorylation downstream of IL-13 stimulation in TF-1 human erythroleukemia cells; test: cells; settings: TF-1, read-out: IL-13-pSTAT6 IC50
[4] = isolated recombinant JAK2 kinase domain, 25 μM ATP

Sequence of isolated recombinant JAK2 kinase domain (O60674 849-1124): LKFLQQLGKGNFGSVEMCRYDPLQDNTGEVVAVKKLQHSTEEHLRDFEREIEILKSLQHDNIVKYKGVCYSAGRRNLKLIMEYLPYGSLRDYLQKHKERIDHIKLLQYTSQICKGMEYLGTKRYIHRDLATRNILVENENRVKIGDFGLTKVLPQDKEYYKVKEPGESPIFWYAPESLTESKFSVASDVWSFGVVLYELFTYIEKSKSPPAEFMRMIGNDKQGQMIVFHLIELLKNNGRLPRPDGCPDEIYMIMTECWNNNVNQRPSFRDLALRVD

Structure (SMILES)	Ki [1, 4] [nM]	IC50 [2] [nM]	Ki [1] [nM]	IC50 [3] [nM]
CN1CCC(N(C)C(=O)c2ccc(Nc3nc4c(N5CCC(O)(c6ccccc6)CC5)cccn4n3)cc2)CC1 [Example 1-43, 4-[[8-(4-hydroxy-4-phenyl-1-piperidyl)-[1,2,4]triazolo[1,5-a]pyridin-2-yl]amino]-N-methyl-N-(1-methyl-4-piperidyl)benzamide]	7.84	968	–	–
CO/N=C/C1(c2ccc(Cl)cc2)CCN(c2cccn3nc(Nc4ccc(C(=O)N(C)C5CCN(C)CC5)cc4)nc23)CC1 [Example 1-250]	1.29	732	–	–
CSc1ccc(C2(CO)CCN(c3cccn4nc(Nc5ccc(C(=O)N(C)C6CCN(C)CC6)cc5)nc34)CC2)cc1 [Example 1-251, 4-([8-[4-(hydroxymethyl)-4-[4-(methylsulfanyl)phenyl]piperidin-1-yl]-[1,2,4]triazolo[1,5-a]pyridin-2-yl]amino)-N-methyl-N-(1-methylpiperidin-4-yl)benzamide]	–	56.6	0.41	–
CN1CCCC12CN(C(=O)c1ccc(Nc3nc4c(C5=CCN(C(=O)CCC(F)(F)F)CC5)cccn4n3)cc1)C2 [Example 2-40, 4,4,4-trifluoro-1-[4-[2-[4-(5-methyl-2,5-diazaspiro[3.4]octane-2-carbonyl)anilino]-[1,2,4]triazolo[1,5-a]pyridin-8-yl]-3,6-dihydro-2H-pyridin-1-yl]butan-1-one]	–	18.7	–	3.5
O=C(NC1CCN(C2CCCC2)CC1)c1ccc(Nc2nc3c(C4=CCN(C(=O)CCC(F)(F)F)CC4)cccn3n2)cc1 [Example 2-49, N-(1-cyclopentyl-4-piperidyl)-4-[[8-[1-(4,4,4-trifluorobutanoyl)-3,6-dihydro-2H-pyridin-4-yl]-[1,2,4]triazolo[1,5-a]pyridin-2-yl]amino]benzamide]	–	10.2	–	3.8
CCOC(=O)N1CC=C(c2cccn3nc(Nc4ccc(C(=O)NCCCN5CCOCC5)cc4)nc23)CC1 [Example 2-56, ethyl 4-[2-[4-(3-morpholinopropylcarbamoyl)anilino]-[1,2,4]triazolo[1,5-a]pyridin-8-yl]-3,6-dihydro-2H-pyridine-1-carboxylate]	–	59.4	–	6.7
CC1CCCN(CCNC(=O)c2ccc(Nc3nc4c(C5=CCN(C(=O)CCC(F)(F)F)CC5)cccn4n3)cc2)C1 (centres unmarked) [Example 2-101, N-[2-(3-methyl-1-piperidyl)ethyl]-4-[[8-[1-(4,4,4-trifluorobutanoyl)-3,6-dihydro-2H-pyridin-4-yl]-[1,2,4]triazolo[1,5-a]pyridin-2-yl]amino]benzamide]	–	31.8	–	3.5
Cc1ccc(CNC(=O)c2ccc(Nc3nc4c(C5=CCN(C(=O)CCC(F)(F)F)CC5)cccn4n3)cc2)cn1 [Example 2-148, N-[(6-methyl-3-pyridyl)methyl]-4-[[8-[1-(4,4,4-trifluorobutanoyl)-3,6-dihydro-2H-pyridin-4-yl]-[1,2,4]triazolo[1,5-a]pyridin-2-yl]amino]benzamide]	–	15	–	3.2
O=C(CCC(F)(F)F)N1CC=C(c2cccn3nc(Nc4ccc(C(=O)N5CCOC(c6ccccn6)C5)cc4)nc23)CC1 (centres unmarked) [Example 2-154, 4,4,4-trifluoro-1-[4-[2-[4-[2-(2-pyridyl)morpholine-4-carbonyl]anilino]-[1,2,4]triazolo[1,5-a]pyridin-8-yl]-3,6-dihydro-2H-pyridin-1-yl]butan-1-one]	–	80.6	–	4.5
O=C(CCC(F)(F)F)N1CC=C(c2cccn3nc(Nc4ccc(C(=O)N5CCC(N6CCOCC6)CC5)cc4)nc23)CC1 [Example 2-210, 4,4,4-trifluoro-1-[4-[2-[4-(4-morpholinopiperidine-1-carbonyl)anilino]-[1,2,4]triazolo[1,5-a]pyridin-8-yl]-3,6-dihydro-2H-pyridin-1-yl]butan-1-one]	–	45.6	–	6.9
CC(C)(CNC(=O)c1ccc(Nc2nc3c(C4=CCN(C(=O)CCC(F)(F)F)CC4)cccn3n2)cc1)N1CCOCC1 [Example 2-213, N-(2-methyl-2-morpholino-propyl)-4-[[8-[1-(4,4,4-trifluorobutanoyl)-3,6-dihydro-2H-pyridin-4-yl]-[1,2,4]triazolo[1,5-a]pyridin-2-yl]amino]benzamide]	–	20.6	–	5.6
CCN(Cc1ccncc1)C(=O)c1ccc(Nc2nc3c(C4=CCN(C(=O)CCC(F)(F)F)CC4)cccn3n2)cc1 [Example 2-219, N-ethyl-N-(4-pyridylmethyl)-4-[[8-[1-(4,4,4-trifluorobutanoyl)-3,6-dihydro-2H-pyridin-4-yl]-[1,2,4]triazolo[1,5-a]pyridin-2-yl]amino]benzamide]	–	37.2	–	3.3
CC1CN(CCNC(=O)c2ccc(Nc3nc4c(C5=CCN(C(=O)CCC(F)(F)F)CC5)cccn4n3)cc2)CC(C)O1 (centres unmarked) [Example 2-268, N-[2-(2,6-dimethylmorpholin-4-yl)ethyl]-4-[[8-[1-(4,4,4-trifluorobutanoyl)-3,6-dihydro-2H-pyridin-4-yl]-[1,2,4]triazolo[1,5-a]pyridin-2-yl]amino]benzamide]	–	26.6	–	3
O=C(NCCCN1CCOCC1)c1ccc(Nc2nc3c(C4=CCN(C(=O)CCC(F)(F)F)CC4)cccn3n2)cc1 [Example 2-271, N-(3-morpholinopropyl)-4-[[8-[1-(4,4,4-trifluorobutanoyl)-3,6-dihydro-2H-pyridin-4-yl]-[1,2,4]triazolo[1,5-a]pyridin-2-yl]amino]benzamide]	–	15.9	–	5.3
O=C(CCC(F)(F)F)N1CC=C(c2cccn3nc(Nc4ccc(C(=O)N(Cc5ccccn5)C5CC5)cc4)nc23)CC1 [Example 2-272, N-cyclopropyl-N-(2-pyridylmethyl)-4-[[8-[1-(4,4,4-trifluorobutanoyl)-3,6-dihydro-2H-pyridin-4-yl]-[1,2,4]triazolo[1,5-a]pyridin-2-yl]amino]benzamide]	–	106	–	3.9
CN1CCC(N(C)C(=O)c2ccc(Nc3nc4c(C5=CCN(C(=O)CCC(F)(F)F)CC5)cccn4n3)cc2)CC1 [Example 2-288, N-methyl-N-(1-methyl-4-piperidyl)-4-[[8-[1-(4,4,4-trifluorobutanoyl)-3,6-dihydro-2H-pyridin-4-yl]-[1,2,4]triazolo[1,5-a]pyridin-2-yl]amino]benzamide]	–	77.7	–	12.7
CC(CN1CCCCC1)NC(=O)c1ccc(Nc2nc3c(C4=CCN(C(=O)CCC(F)(F)F)CC4)cccn3n2)cc1 (centres unmarked) [Example 2-334, N-[1-methyl-2-(1-piperidyl)ethyl]-4-[[8-[1-(4,4,4-trifluorobutanoyl)-3,6-dihydro-2H-pyridin-4-yl]-[1,2,4]triazolo[1,5-a]pyridin-2-yl]amino]benzamide]	–	30.7	–	4.3
O=C(CCC(F)(F)F)N1CC=C(c2cccn3nc(Nc4ccc(C(=O)N5CCC(c6ccncc6)C5)cc4)nc23)CC1 (centres unmarked) [Example 2-338, 4,4,4-trifluoro-1-[4-[2-[4-[3-(4-pyridyl)pyrrolidine-1-carbonyl]anilino]-[1,2,4]triazolo[1,5-a]pyridin-8-yl]-3,6-dihydro-2H-pyridin-1-yl]butan-1-one]	–	23.4	–	3.3
O=C(NCCc1ccncc1)c1ccc(Nc2nc3c(C4=CCN(C(=O)CCC(F)(F)F)CC4)cccn3n2)cc1 [Example 2-343, N-[2-(4-pyridyl)ethyl]-4-[[8-[1-(4,4,4-trifluorobutanoyl)-3,6-dihydro-2H-pyridin-4-yl]-[1,2,4]triazolo[1,5-a]pyridin-2-yl]amino]benzamide]	–	38.3	–	4.6
